Experimental data from paper PMC6131205, “Controlling the regioselectivity and stereospecificity of FAD-dependent polyamine oxidases with the use of amine-attached guide molecules as conformational modulators” (Bioscience Reports, 2018).
Where two headings read alike, the source gives them in different places. Blank lines part the entries; values can stand above or below the compound they belong to.

Key:
[1] = target: T1, Fms1 (Saccharomyces cerevisiae, UniProt P50264); assay: Fms1 cleavage of 1 mM Spd supplemented with aldehydes (E1/E2 regioselectivity); assay type: biochemical, yeast; parameters: made in house; conditions: fixed 1 mM Spd, aldehyde 25-1000 μM, pH 9.0, 25°C;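 further: recombinant yeast Fms1 reactions in Glycine-NaOH buffer, with products Put and DAP quantified by HPLC using post-column o-phthalaldehyde derivatization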
T1 sequence (P50264 whole entry): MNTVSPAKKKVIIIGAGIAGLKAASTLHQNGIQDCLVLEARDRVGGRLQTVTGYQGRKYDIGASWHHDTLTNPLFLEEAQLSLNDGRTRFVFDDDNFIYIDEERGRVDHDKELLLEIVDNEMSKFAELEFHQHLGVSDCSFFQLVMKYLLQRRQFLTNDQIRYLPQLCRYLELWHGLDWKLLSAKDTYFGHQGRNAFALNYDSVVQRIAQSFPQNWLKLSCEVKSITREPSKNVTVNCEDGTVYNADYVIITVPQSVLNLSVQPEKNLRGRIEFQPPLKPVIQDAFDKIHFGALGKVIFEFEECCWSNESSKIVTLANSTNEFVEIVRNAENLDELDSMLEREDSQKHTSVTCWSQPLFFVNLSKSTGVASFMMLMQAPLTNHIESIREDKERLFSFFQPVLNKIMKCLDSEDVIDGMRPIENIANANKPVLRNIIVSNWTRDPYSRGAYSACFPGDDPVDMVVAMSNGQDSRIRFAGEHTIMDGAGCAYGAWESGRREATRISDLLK
Experimental: (§1) HPLC with post-column o-phthalaldehyde-derivatization was used to determine the concentrations of the reaction products Put and 1,3-diaminopropane (DAP) or butane-1,3-diamine respectively as described in [30]. Fms1 activity was determined essentially as described for human recombinant APAO, but reactions were carried out in 100 mM Glycine-NaOH buffer at pH 9.0 in a water bath at +25°C [29, 30].

[2] = target: T1, Fms1; assay: Substrate kinetics with recombinant Fms1 (HPLC of reaction products);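 further: recombinant polyamine oxidases incubated with substrate, product amines (putrescine, 1,3-diaminopropane or butane-1,3-diamine) quantified by HPLC after post-column o-phthalaldehyde derivatization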
Experimental: as §1
The reactions were carried out in 1 triplicate at pH 9.0 in 100 mM Glycine-NaOH at +25°C.
values for N -Ac-MeSpd enantiomers were determined by using substrate concentrations of 25, 50,
for Rac-MeSpd 30 min, (R)-MeSpd 20 min and (S)-MeSpd 40 minutes.
The reactions were carried out in triplicate at pH 9.0 in 100 mM Glycine-NaOH at +25°C.
values for MeSpd enantiomers were determined by using substrate concentrations of 100, 300, 600,
1000, 2000 and 4000 M. Recombinant Fms1 was 3.8 g/reaction and the incubation time 60
incubated for 30 min (half of the reaction time of an ordinary sample). E1 cleavage was monitored
by HPLC by measuring Put formation and E2 cleavage by determining butane-1,3-diamine content.

[3] = target: T2, human recombinant APAO (Homo sapiens, UniProt Q6QHF9); conditions: cited from earlier work
T2 construct: made in house
T2 sequence (Q6QHF9 whole entry): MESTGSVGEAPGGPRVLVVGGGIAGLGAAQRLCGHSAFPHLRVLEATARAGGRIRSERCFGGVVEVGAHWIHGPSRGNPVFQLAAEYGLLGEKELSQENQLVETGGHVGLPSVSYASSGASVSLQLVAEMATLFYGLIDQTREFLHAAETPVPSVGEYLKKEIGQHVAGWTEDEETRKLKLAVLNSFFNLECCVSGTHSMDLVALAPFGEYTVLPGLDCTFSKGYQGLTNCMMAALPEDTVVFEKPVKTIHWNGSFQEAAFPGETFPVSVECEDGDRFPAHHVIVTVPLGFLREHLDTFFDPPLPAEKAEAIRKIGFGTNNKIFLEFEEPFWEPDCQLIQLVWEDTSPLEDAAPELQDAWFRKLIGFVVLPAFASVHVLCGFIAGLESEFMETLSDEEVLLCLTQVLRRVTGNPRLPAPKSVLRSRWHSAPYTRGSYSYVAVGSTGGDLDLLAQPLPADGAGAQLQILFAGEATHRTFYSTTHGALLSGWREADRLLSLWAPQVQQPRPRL

[4] = target: T2, human recombinant APAO; assay: Substrate kinetics with human recombinant APAO (HPLC of reaction products); assay type: biochemical; conditions: for Km / Vmax / kcat: 100 mM Glycine-NaOH pH 9.5, 5 mM DTT
[5] = target: T1, Fms1; parameters: made in house; method as in PMID 21067138; conditions: cited from earlier work
[6] = target: SMOX (Homo sapiens, UniProt Q9NWM0); assay: Inhibition of SMOX (Ki, peroxidase-coupled fluorescence, Spm as substrate)
Chain of SMOX (Q9NWM0 whole entry): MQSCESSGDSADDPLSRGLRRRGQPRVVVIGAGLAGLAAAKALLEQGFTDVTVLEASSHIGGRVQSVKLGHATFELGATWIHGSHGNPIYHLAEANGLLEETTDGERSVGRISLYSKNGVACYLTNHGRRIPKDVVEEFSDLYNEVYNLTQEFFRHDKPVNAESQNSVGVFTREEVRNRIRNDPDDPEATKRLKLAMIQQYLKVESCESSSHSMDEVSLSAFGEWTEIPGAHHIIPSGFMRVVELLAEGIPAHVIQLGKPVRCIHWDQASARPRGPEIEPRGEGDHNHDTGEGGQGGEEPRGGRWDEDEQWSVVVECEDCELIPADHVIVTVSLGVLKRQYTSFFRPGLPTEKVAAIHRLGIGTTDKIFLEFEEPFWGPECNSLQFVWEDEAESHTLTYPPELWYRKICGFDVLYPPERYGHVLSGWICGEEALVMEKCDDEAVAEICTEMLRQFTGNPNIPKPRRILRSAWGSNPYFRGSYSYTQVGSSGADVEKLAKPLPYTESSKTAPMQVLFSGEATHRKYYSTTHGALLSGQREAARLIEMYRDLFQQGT
Experimental: Reaction mixtures contained 40 units/ml horseradish peroxidase (Roche), 1 mM homovanillic acid in 100 mM Glycine-NaOH at pH 9.0 supplemented with 40 ng of SMOX. […] Dilutions of fresh H2O2 were used as standard.

[7] = Supplementary Table 1, pH 9.0, 100 mM Glycine-NaOH, 25°C, Put formation
[8] = Ki (best-fit value, noncompetitive inhibition), GraphPad Prism global fit, supplement
[9] = Ki, non-competitive fit, 25, 50 or 100 µM Spm, pH 9.0, 37°C
[10] = 1 mM Spm, Glycine-NaOH buffer pH 9.0

SMILES: COc1ccc(C=O)cc1 [C00009]
E1 cleavage (Put) kcat [1]: 0.13 ± 0.00 s⁻¹ | E2 cleavage (DAP) kcat [1]: 0.22 ± 0.00 s⁻¹

SMILES: CC(=O)NC(C)CCNCCCCN (stereo not drawn) [N1-Ac-MeSpd, N8-Acetyl-1,8-diamino-5-azanonane]
Vmax [2, 7]: 50 ± 3 nmol/min/mg | kcat [2, 7]: 0.05 ± 0.00 s⁻¹

SMILES: CC(=O)N[C@H](C)CCNCCCCN [N^1-Ac-(R)-MeSpd]
Vmax [2, 7]: 61 ± 4 nmol/min/mg | kcat [2, 7]: 0.06 ± 0.00 s⁻¹ | Km [3]: 95 µM | kcat [3]: 9 s⁻¹ | specificity constant ratio (R)-enantiomer/(S)-enantiomer ([4]; APAO, ratio of kcat/Km): 13

SMILES: CC(=O)N[C@@H](C)CCNCCCCN [N^1-Ac-(S)-MeSpd]
Vmax [2, 7]: 22 ± 1 nmol/min/mg | kcat [2, 7]: 0.02 ± 0.00 s⁻¹ | Km [3]: 170 µM | kcat [3]: 1.2 s⁻¹

SMILES: CC(=O)NCCCNCCCCN [N^1-AcSpd, reference compound]
kcat [2, 7]: 65 ± 2 s⁻¹

SMILES: CC(=O)NCCCNCCCCNCCCN [N^1-AcSpm]
kcat [5]: 15.1 ± 0.4 s⁻¹

SMILES: C[C@H](CCNCCCCN)NC(=O)c1ccncc1 [P4-(R)-MeSpd]
Km [4]: 3.6 ± 0.6 µM | Vmax [4]: 5.59 ± 0.60 µmol/min/mg | kcat [4]: 5.2 ± 0.6 s⁻¹ | Ki [6, 8]: 1280 µM | Ki [6, 9]: 1280 ± 111 µM

SMILES: C[C@@H](CCNCCCCN)NC(=O)c1ccncc1 [P4-(S)-MeSpd]
Km [4]: 0.8 ± 0.2 µM | Vmax [4]: 0.02 ± 0.00 µmol/min/mg | kcat [4]: 0.01 ± 0.00 s⁻¹ | Ki [6, 8]: 1020 µM | Ki [6, 9]: 1020 ± 79 µM

SMILES: NCCCCNCCCN [Spd, spermidine, reference compound]
Ratio of E1/E2 ([2]; substrate alone, no aldehyde, pH 9.0, 25°C): 7.5

SMILES: NCCCNCCCCNCCCN [Spm, spermine, reference compound]
reaction velocity ([2]; 1 mM Spm, 100 mM Tris/HCl or 170 mM Bis/Tris buffers pH 9.0): 36.1 ± 0.24 µmol/mg/min | pH of highest reaction velocity ([2]; 1 mM Spm, 170 mM Bis/Tris): 9.25 | reaction velocity in comparison with rate at the optimum pH ([2]; 1 mM Spm, 170 mM Bis/Tris, pH 8.0): ~ 15% | reaction velocity in comparison with rate at the optimum pH ([2]; 1 mM Spm, 170 mM Bis/Tris, pH 8.5): 60% | activity of recombinant Fms1 [2, 10]: 30.9 ± 0.45 µmol/mg/min | kcat [2, 10]: 30.3 ± 0.44 s⁻¹ | kcat [5]: 39.0 ± 1.5 s⁻¹

Results, then the compound that gave them:

E1 cleavage (Put) kcat [1]: 0.49 ± 0.01 s⁻¹ | E2 cleavage (DAP) kcat [1]: 0.49 ± 0.01 s⁻¹ | Ratio of E1/E2 [1]: 2.2
SMILES: O=Cc1ccccn1 [C00007]

E1 cleavage (Put) kcat [1]: 1.13 ± 0.03 s⁻¹
SMILES: Cc1ncc(CO)c(C=O)c1O [C00008]

E1 cleavage (Put) kcat [1]: 1.41 ± 0.04 s⁻¹ | E2 cleavage (DAP) kcat [1]: 0.43 ± 0.01 s⁻¹ | Ratio of E1/E2 [1]: 5.4
SMILES: O=CC1CCCCC1 [C00010]

E1 cleavage (Put) kcat [1]: 1.06 ± 0.04 s⁻¹ | E2 cleavage (DAP) kcat [1]: 0.03 ± 0.00 s⁻¹
SMILES: O=Cc1ccccc1[N+](=O)[O-] [C00011]

E1 cleavage (Put) kcat [1]: 0.37 ± 0.00 s⁻¹ | E2 cleavage (DAP) kcat [1]: 0.05 ± 0.00 s⁻¹ | Ratio of E1/E2 [1]: 6.4
SMILES: O=Cc1ccc([N+](=O)[O-])cc1 [C00012]
